In patent publication US20120214818A1, “METHODS OF TREATING DIASTOLIC DYSFUNCTION AND RELATED CONDITIONS” (THE BOARD OF TRUSTEES OF THE UNIVERSITY OF ILLINOIS, priority 2009, published 2012):

Tested on: myofilaments of skinned left ventricular papillary fiber bundles
Assay: Simultaneous tension and ATPase rate in skinned fiber bundles (second series)
Assay type: biochemical, mouse
Conditions: ranolazine 15 min; for Maximum ATPase: 20° C.; for Ktr, the rate constant for force redevelopment: in s-1 (unit assumed)
Procedure: We measured myofilament response to Ca^2+ under two experimental conditions as described in detail below. In a first series of experiments the skinned fiber bundles were mounted in a force measuring apparatus and sarcomere length (SL) was adjusted to 2.2 μm using a laser diffraction pattern and width and thickness were determined for calculation of cross-sectional area. Force was measured over a range of pCa values Skinned fiber bundles were treated with 10 μmol/L ranolazine for 15 min prior to evaluation. In a second series of experiments under different experimental conditions, we determined steady-state Mg-ATPase activity, while simultaneously measuring isometric tension in skinned fiber bundles as a function of pCa. In all experiments, skinned fibers were treated with ranolazine or DMSO vehicle for 15 min prior to beginning either tension or tension/ATPase rate measurements. Tension generated was computed from the force/cross-sectional area and data were analyzed in the GraphPad Prism software and fit with a sigmoidal modified Hill equation in order to generate tension-pCa curves, Hill coefficients, and pCa50 (pCa value at half-maximum tension). We also determined cross-bridge kinetics employing a quick release/restretch protocol. The rate constant for force redevelopment, Ktr, provides a measure of the rate of cross-bridge entry into the force generating state. In all experiments, only fiber bundles retaining more than 80% of their initial maximum tension were included in the analysis. We treated the fibers with ranolazine from a DMSO stock solution or DMSO alone added to relaxing solution for 15 min prior to the experimental run. Methods for gel electrophoresis analysis of myofilament protein phosphorylation and oxidative modifications are provided below.
Studies with detergent extracted (skinned) fiber bundles: Mice were anesthetized with pentobarbital (50 mg/kg IP), and the hearts were rapidly excised and rinsed in a pH 7.0 ice-cold relaxing solution (HR) composed of (in mM) 10 EGTA, 41.89K-Prop, 6.57 MgCl2, 100 BES, 6.22 ATP, 5 Na azide, and 10 creatine phosphate. The solution also contained 1 μg/ml leupeptin, 2.5 μg/ml pepstatin A, and 50 μM phenylmethylsulfonyl fluoride. Left ventricular papillary muscles were dissected and fiber bundles were prepared as previously described (Wolska et al., J. Physiol. 536: 863-870 (2001)). The fiber bundles were extracted overnight in relaxing solution plus 1% Triton X-100 at 4° C.
In a second series of experiments force and ATPase rate were measured simultaneously using methods and an experimental apparatus previously described (de Tombe et al., Circ Res 76: 734-741 (1995); Wolska et al., Circ Res 84: 745-751 (1999)). The fiber bundles were mounted between a force transducer and displacement motor using aluminum T-clips, and the sarcomere length was set to 2.2 μm using He—Ne laser diffraction (Vahebi et al., Circ Res 96: 740-747 (2005)). The width and diameter were each measured at three points along the fiber bundle. Force per cross-sectional area was used to determine tension. The fiber was contracted initially at a saturating calcium concentration (pCa 4.5) and sarcomere length was again adjusted to 2.2 μm. Sarcomere length remained constant throughout the rest of the experiment.
ATPase activity was measured at 20° C. as previously described and calibrated with rapid injections of ADP (0.5 nmol) with a motor-controlled syringe (de Tombe et al., 1990, supra; Wolska et al., 1999, supra). The fiber was placed in relaxing solution for 2 min, then in the preactivation solution for 2-3 min each time before being placed in the activating solution for 1-2 min (until stabilization of force) and then quickly returned to the relaxing solution. Various contraction-relaxation cycles were carried out using different ratios of total calcium concentration to total EGTA concentration. The final contraction was again at a saturating calcium concentration. […]

Maximum Tension (DOCA-salt fiber bundles): 27.19 ± 0.54 mN/mm^2 | Passive Tension (DOCA-salt fiber bundles): 0.68 ± 0.40 mN/mm^2 | Tension Cost ΔATPase/ΔTension (DOCA-salt fiber bundles): 10.8 ± 0.8 | Maximum ATPase (DOCA-salt fiber bundles): 326.9 ± 8.7 pmol/s/mg | Ktr, the rate constant for force redevelopment (DOCA-salt fiber bundles): 11.0 ± 1.0 | Maximum Tension (sham fiber bundles): 36.80 ± 0.16 mN/mm^2 | Passive Tension (sham fiber bundles): 0.55 ± 0.33 mN/mm^2 | Tension Cost ΔATPase/ΔTension (sham fiber bundles): 7.1 ± 0.4 | Maximum ATPase (sham fiber bundles): 302.0 ± 9.0 pmol/s/mg | Ktr, the rate constant for force redevelopment (sham fiber bundles): 11.2 ± 0.5
Compound: COc1ccccc1OCC(O)CN1CCN(CC(=O)Nc2c(C)cccc2C)CC1 (stereo not shown) [ranolazine]
